Source: US20050226919A1, “Device for transdermal administration for the treatment of urinary tract disorders” (priority 2001, published 2005)

Key:
[1] = Skin permeation across hairless mouse skin (horizontal diffusion cell); type: in vitro ADME
Protocol: (§1) The skin permeation of KMD 3213 was also evaluated on hairless mouse skin and human skin. Human skin penetration assays were performed as described by Tanojo et al. in Journal of Controlled Release 45 (1997), 41-47. The concentration of KMD 3213 was measured by HPLC with a Symetry Shield RP-8, 3.9*150 mm 5 μm column; T=35° C.; eluent: water/acetonitrile/trifluoracetic acid 800/200/1 (v/v/v); dectetion UV at 225 nm; flux rate 1.5 ml/min; injection volume: 100 μl at 23° C.
The flux measurements on hairless mouse skin were conducted using a TTS area of 2.55 cm^2 fixed on mouse abdominal and back skin in a horizontal diffusion cell. Immediately thereafter the acceptor chamber of the cell was filled with phosphate buffer solution (0.066 molar) previously adjusted to 32±0.5° C. and pH 6.2, in an air-bubble free state, and the release medium thermostatted to 32±0.5° C. At the time of sampling (after 3, 6, 24 and 48 hours) the release medium is exchanged with fresh medium thermostatted at 32±0.5° C. KMD 3213 was measured with HPLC as explained above.

[2] = Skin permeation across human skin (in vitro penetration assay); type: in vitro ADME
Protocol: as §1

α1a-receptor = target: T1, α1a-receptor (Homo sapiens, UniProt P35348); conditions: Murata et al., Br. J. Pharmacol. (1999) 127, 19-26; cited from earlier work
T1 sequence (P35348 1-466): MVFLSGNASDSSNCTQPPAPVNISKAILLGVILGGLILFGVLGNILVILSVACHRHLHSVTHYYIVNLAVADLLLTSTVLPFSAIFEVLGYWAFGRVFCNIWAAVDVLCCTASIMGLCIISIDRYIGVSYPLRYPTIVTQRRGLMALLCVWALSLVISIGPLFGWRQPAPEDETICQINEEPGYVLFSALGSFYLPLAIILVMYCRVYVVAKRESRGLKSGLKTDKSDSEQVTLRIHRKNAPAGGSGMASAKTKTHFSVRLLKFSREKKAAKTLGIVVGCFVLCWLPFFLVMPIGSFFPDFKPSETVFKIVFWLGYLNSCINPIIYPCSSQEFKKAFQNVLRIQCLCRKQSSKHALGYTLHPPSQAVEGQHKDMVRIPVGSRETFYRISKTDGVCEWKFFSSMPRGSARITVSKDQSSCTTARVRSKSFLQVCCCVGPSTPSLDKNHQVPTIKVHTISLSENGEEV

steady state skin permeation rate on hairless mouse skin ([1]; hairless mouse skin, TTS area 2.55 cm^2, phosphate buffer pH 6.2, 32°C): approximately 2.7 mg/20 cm^2 per day
steady state flux rate through mouse skin ([1]; mouse skin, from the devices of the invention): 2.7 mg/day
steady state flux rate on human skin [2]: 2.9 mg/20 cm^2 per day
SMILES: C[C@H](Cc1cc2c(c(C(N)=O)c1)N(CCCO)CC2)NCCOc1ccccc1OCC(F)(F)F [KMD 3213, (-)-(R)-1-(3-hydroxypropyl)-5-[2-[[2-[2-(2,2,2-trifluoroethoxy)phenoxy]ethyl]amino]propyl]indoline-7-carboxamide]
α-adrenoceptor subtype specificity (α1a-receptor): binding specifically to the α1a-receptor
